According to patent US10376520B2, “Methods for the treatment of cardiovascular disorders” (Galapagos NV, priority 2015, dated 2019):

System: RA patients
Assay: Atherogenic index, Study 1 (RA patients, add-on to MTX)
Type: in vivo, human
Experimental: As used herein, the term ‘atherogenic index’ refers to
Double-blind, placebo-controlled add on study in subjects with moderately to severely active RA who have an inadequate response to methotrexate (MTX) (oral or parenteral).
Compound 1 (dosed as a [Compound 1:HCl:3H2O]) is dosed for twelve weeks once daily (q.d.) (50 mg, 100 mg or 200 mg) or twice daily (b.i.d.) (25 mg, 50 mg or 100 mg); or placebo.
At Week 12, the subjects on placebo who have not achieved 20% improvement in swollen joint count (SJC66) and tender joint count (TJC68) are re-randomized automatically to receive Compound 1 (dosed as a [Compound 1:HCl:3H2O]) either at 100 mg q.d. or 50 mg b.i.d. doses in a blinded fashion; subjects on 50 mg q.d. who have not achieved 20% improvement in SJC66 and TJC68 will be assigned to 100 mg q.d. and subjects on 25 mg b.i.d. that have not achieved a 20% improvement in SJC66 and TJC68 will be assigned to 50 mg b.i.d. Subjects who switch treatment at week 12 are handled as if they discontinued at week 12 for the purpose of statistical analysis, whereas subjects in the other groups will maintain their randomized treatment until Week 24.
The atherogenic index has been identified to be a good predictor of cardiovascular disorders risks and is calculated as follows: […]

[1] = 100 mg b.i.d. continued over 24 weeks, week 1
[2] = 100 mg b.i.d. continued over 24 weeks, week 2
[3] = 100 mg b.i.d. continued over 24 weeks, week 4
[4] = 100 mg b.i.d. continued over 24 weeks, week 8
[5] = 100 mg b.i.d. continued over 24 weeks, week 12
[6] = 100 mg b.i.d. continued over 24 weeks, week 16
[7] = 100 mg b.i.d. continued over 24 weeks, week 20
[8] = 100 mg b.i.d. continued over 24 weeks, week 24
[9] = 100 mg q.d. continued over 24 weeks, week 1
[10] = 100 mg q.d. continued over 24 weeks, week 2
[11] = 100 mg q.d. continued over 24 weeks, week 4
[12] = 100 mg q.d. continued over 24 weeks, week 8
[13] = 100 mg q.d. continued over 24 weeks, week 12
[14] = 100 mg q.d. continued over 24 weeks, week 16
[15] = 100 mg q.d. continued over 24 weeks, week 20
[16] = 100 mg q.d. continued over 24 weeks, week 24

O=C(Nc1nc2cccc(-c3ccc(CN4CCS(=O)(=O)CC4)cc3)n2n1)C1CC1 [Compound 1, cyclopropanecarboxylic acid {5-[4-(1,1-dioxo-thiomorpholin-4-ylmethyl)-phenyl]-[1,2,4]triazolo[1,5-a]pyridin-2yl}-amide]
Atherogenic index Median CFB - 12 weeks results (50 mg q.d., week 1): -0.10 mmol/L | Atherogenic index Mean CFB (50 mg q.d., week 2): -0.13 mmol/L | Atherogenic index Mean percentage CFB - 12 weeks results (50 mg q.d., week 2): −3% | Atherogenic index Median CFB - 12 weeks results (50 mg q.d., week 2): -0.20 mmol/L | Atherogenic index Mean CFB (50 mg q.d., week 4): -0.11 mmol/L | Atherogenic index Mean percentage CFB - 12 weeks results (50 mg q.d., week 4): −3% | Atherogenic index Median CFB - 12 weeks results (50 mg q.d., week 4): -0.10 mmol/L | Atherogenic index Mean CFB (50 mg q.d., week 8): -0.03 mmol/L | Atherogenic index Mean percentage CFB - 12 weeks results (50 mg q.d., week 8): 0% | Atherogenic index Median CFB - 12 weeks results (50 mg q.d., week 8): -0.10 mmol/L | Atherogenic index Mean CFB (50 mg q.d., week 12): 0.01 mmol/L | Atherogenic index Mean percentage CFB - 12 weeks results (50 mg q.d., week 12): 2% | Atherogenic index Median CFB - 12 weeks results (50 mg q.d., week 12): 0.00 mmol/L | Atherogenic index Mean CFB - 24 weeks results [1]: -0.05 mmol/L | Atherogenic index Mean percentage CFB - 24 weeks results [1]: −0.38% | Atherogenic index Median CFB - 24 weeks results [1]: 0.00 mmol/L | Atherogenic index Mean CFB - 24 weeks results [2]: -0.19 mmol/L | Atherogenic index Mean percentage CFB - 24 weeks results [2]: −4.84% | Atherogenic index Median CFB - 24 weeks results [2]: -0.20 mmol/L | Atherogenic index Mean CFB - 24 weeks results [3]: -0.30 mmol/L | Atherogenic index Mean percentage CFB - 24 weeks results [3]: −6.94% | Atherogenic index Median CFB - 24 weeks results [3]: -0.30 mmol/L | Atherogenic index Mean CFB - 24 weeks results [4]: -0.18 mmol/L | Atherogenic index Mean percentage CFB - 24 weeks results [4]: −3.54% | Atherogenic index Median CFB - 24 weeks results [4]: -0.20 mmol/L | Atherogenic index Mean CFB - 24 weeks results [5]: -0.24 mmol/L | Atherogenic index Mean percentage CFB - 24 weeks results [5]: −4.76% | Atherogenic index Median CFB - 24 weeks results [5]: -0.20 mmol/L | Atherogenic index Mean CFB - 24 weeks results [6]: -0.25 mmol/L | Atherogenic index Mean percentage CFB - 24 weeks results [6]: −5.23% | Atherogenic index Median CFB - 24 weeks results [6]: -0.30 mmol/L | Atherogenic index Mean CFB - 24 weeks results [7]: -0.24 mmol/L | Atherogenic index Mean percentage CFB - 24 weeks results [7]: −5.40% | Atherogenic index Median CFB - 24 weeks results [7]: -0.20 mmol/L | Atherogenic index Mean CFB - 24 weeks results [8]: -0.18 mmol/L | Atherogenic index Mean percentage CFB - 24 weeks results [8]: −3.70% | Atherogenic index Median CFB - 24 weeks results [8]: -0.20 mmol/L | Atherogenic index Mean CFB - 24 weeks results [9]: -0.06 mmol/L | Atherogenic index Mean percentage CFB - 24 weeks results [9]: −0.13% | Atherogenic index Median CFB - 24 weeks results [9]: -0.10 mmol/L | Atherogenic index Mean CFB - 24 weeks results [10]: -0.17 mmol/L | Atherogenic index Mean percentage CFB - 24 weeks results [10]: −2.80% | Atherogenic index Median CFB - 24 weeks results [10]: -0.10 mmol/L | Atherogenic index Mean CFB - 24 weeks results [11]: -0.11 mmol/L | Atherogenic index Median CFB - 24 weeks results [11]: -0.10 mmol/L | Atherogenic index Mean CFB - 24 weeks results [12]: -0.11 mmol/L | Atherogenic index Mean percentage CFB - 24 weeks results [12]: −1.34% | Atherogenic index Median CFB - 24 weeks results [12]: -0.10 mmol/L | Atherogenic index Mean CFB - 24 weeks results [13]: -0.06 mmol/L | Atherogenic index Mean percentage CFB - 24 weeks results [13]: −0.45% | Atherogenic index Median CFB - 24 weeks results [13]: -0.10 mmol/L | Atherogenic index Mean CFB - 24 weeks results [14]: -0.18 mmol/L | Atherogenic index Mean percentage CFB - 24 weeks results [14]: −3.49% | Atherogenic index Median CFB - 24 weeks results [14]: -0.20 mmol/L | Atherogenic index Mean CFB - 24 weeks results [15]: -0.27 mmol/L | Atherogenic index Mean percentage CFB - 24 weeks results [15]: −5.64% | Atherogenic index Median CFB - 24 weeks results [15]: -0.35 mmol/L | Atherogenic index Mean CFB - 24 weeks results [16]: -0.17 mmol/L | Atherogenic index Mean percentage CFB - 24 weeks results [16]: −3.81% | Atherogenic index Median CFB - 24 weeks results [16]: -0.30 mmol/L | Atherogenic index Mean CFB (100 mg q.d., week 1): -0.06 mmol/L | Atherogenic index Mean percentage CFB - 12 weeks results (100 mg q.d., week 1): 0% | Atherogenic index Median CFB - 12 weeks results (100 mg q.d., week 1): -0.10 mmol/L | Atherogenic index Mean CFB (100 mg q.d., week 2): -0.17 mmol/L | Atherogenic index Mean percentage CFB - 12 weeks results (100 mg q.d., week 2): −3% | Atherogenic index Median CFB - 12 weeks results (100 mg q.d., week 2): -0.10 mmol/L | Atherogenic index Mean CFB (100 mg q.d., week 4): -0.11 mmol/L | Atherogenic index Mean percentage CFB - 12 weeks results (100 mg q.d., week 4): −2% | Atherogenic index Median CFB - 12 weeks results (100 mg q.d., week 4): -0.10 mmol/L | Atherogenic index Mean CFB (100 mg q.d., week 8): -0.11 mmol/L | Atherogenic index Mean percentage CFB - 12 weeks results (100 mg q.d., week 8): −1% | Atherogenic index Median CFB - 12 weeks results (100 mg q.d., week 8): -0.10 mmol/L | Atherogenic index Mean CFB (100 mg q.d., week 12): -0.06 mmol/L | Atherogenic index Mean percentage CFB - 12 weeks results (100 mg q.d., week 12): 0%
